Structures can show the parent of a compound that is named as a salt.
Experiments:
EphB4 = biological target: T1, EphB4 (Homo sapiens, UniProt P54760); assay: EphB4 cell-based assay (quantitative Western blotting, PC-3 cells, Ephrin-B2 stimulated); settings: compound at 100 nM; PC-3 human prostate cancer cells; Ephrin-B2 stimulation; read-out: % EphB4 kinase activity remains
T1 construct: EphB4 autophosphorylation in PC-3 human prostate cancer cells; host or cells: PC-3 human prostate cancer cells
T1 sequence (P54760 16-987): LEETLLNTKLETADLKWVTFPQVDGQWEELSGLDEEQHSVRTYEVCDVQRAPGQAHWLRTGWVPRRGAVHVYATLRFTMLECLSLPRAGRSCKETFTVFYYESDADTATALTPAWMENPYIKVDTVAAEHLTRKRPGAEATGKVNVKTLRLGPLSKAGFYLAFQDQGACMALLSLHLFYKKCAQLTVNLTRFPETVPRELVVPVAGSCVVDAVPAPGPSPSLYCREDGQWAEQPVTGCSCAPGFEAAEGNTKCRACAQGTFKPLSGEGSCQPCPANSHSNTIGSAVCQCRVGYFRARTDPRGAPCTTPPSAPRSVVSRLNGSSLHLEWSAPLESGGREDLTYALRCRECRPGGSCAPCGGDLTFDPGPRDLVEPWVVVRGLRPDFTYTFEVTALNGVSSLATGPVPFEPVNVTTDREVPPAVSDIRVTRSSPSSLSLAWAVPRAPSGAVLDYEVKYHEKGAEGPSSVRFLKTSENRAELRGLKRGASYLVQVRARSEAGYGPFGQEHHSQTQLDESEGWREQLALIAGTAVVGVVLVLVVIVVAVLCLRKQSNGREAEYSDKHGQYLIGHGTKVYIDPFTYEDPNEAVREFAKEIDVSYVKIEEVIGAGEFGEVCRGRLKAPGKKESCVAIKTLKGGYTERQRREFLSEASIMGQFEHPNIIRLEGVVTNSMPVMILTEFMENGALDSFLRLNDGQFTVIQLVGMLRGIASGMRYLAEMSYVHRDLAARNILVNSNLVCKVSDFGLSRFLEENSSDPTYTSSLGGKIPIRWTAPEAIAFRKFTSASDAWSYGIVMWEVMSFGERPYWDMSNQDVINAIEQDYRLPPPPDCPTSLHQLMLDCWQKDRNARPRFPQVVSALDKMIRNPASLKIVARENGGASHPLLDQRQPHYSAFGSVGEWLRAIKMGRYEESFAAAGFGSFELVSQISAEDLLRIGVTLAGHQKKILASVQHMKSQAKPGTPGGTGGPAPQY
Source text: A standard image-based quantitative Western blotting assay for EphB4 kinase activity can be used to test or screen the compounds of this invention and to identify EphB4 antagonists.
The kinase activity of EphB4 in cells depends on its autophosphorylation level stimulated by the binding to its ligand Ephrin-B2. High level of EphB4 autophosphorylation in PC-3 human prostate cancer cells (ATCC, USA) induced by the application of Ephrin-B2 to the cell culture can be observed by regular Western blotting assay.
A compound to be tested was first dissolved in DMSO to a concentration of 10 mM and stored at −20° C. On the day of screening procedure, the compound in DMSO was added into DMEM medium to a final concentration of 100 nM. Two hours later, Ephrin-B2 ([…]) was added into DMEM medium to stimulate the production of phosphor-EphB4. The phosphor-EphB4 was detected based on its molecular weight and with anti-phosphor protein antibody PY-20 in cell lysate from approximately 5×10^5 PC-3 cells by Western blotting followed by imaging quantification. The relative level of EphB4 kinase activity was quantified as the ratio between the amount of phosphor-EphB4 and that of total Actin proteins.

c-Met = biological target: T2, c-Met (Homo sapiens, UniProt P08581); assay: c-Met cell-based assay (ELISA, phosphor-/total c-Met in transfected CHO cells, HGF stimulated); settings: compound at 100 nM; CHO cells transfected with full length c-Met; HGF 100 ng/mL
T2 construct: expressed in transfected cells; host or cells: CHO cells
Source text: A standard cell-based assay for c-Met kinase activity can be used to test or screen the compounds of this invention and to identify c-Met antagonists. In this example, ELISA kits (R&D Systems, Inc., Minneapolis, Minn. 55413, USA) were used.
The activity of c-Met in cells depended on its autophosphorylation level by it specific growth factor-Hepatocyte growth factor (HGF). In order to induce the cell to produce c-Met, full length of c-Met sequence was cloned into PC-DNA3.1 vector, the plasmid was then transfected into CHO cells. After 48 hours, the expression of c-Met in transfected CHO cells was confirmed by regular western blotting.
A compound to be tested was first dissolved in DMSO to a concentration of 10 mM and stored at −20° C. One day before the screening, CHO cells transfected with full length c-Met plasmid were grown in DMEM medium without the presence of serum. On the day of screening procedure, the compounds with various concentration in DMSO (from 0.5 nM to 500 nM) were added into DMEM medium, two hours later, Hepatocyte growth factor (HGF) was added into the medium at the concentration of 100 ng/mL to stimulate the production of phosphor-c-Met. Cell lysate from approximately 5×10^5 transfected CHO cells were reacted with anti-phosphor c-Met or anti-total c-Met antibody in 96 well plates, in the presence of detection antibody. The phosphor-c-Met or total c-Met were detected with Streptavidin-HRP (R&D Systems), followed by chemiluminescent detection. The level of c-Met kinase activity was quantified as the ratio between the amount of phosphor- and that of total c-Met proteins.

Mouse liver microsome = assay: Liver microsomal stability assay, mouse; assay type: in vitro ADME; design: key: A: the percentage of a compound remains is greater than that of its deuterium non-enriched counterpart; B: a result otherwise; settings: 40 μM, 37° C., 30 min, 1 mg/ml microsome proteins; class relative to deuterium non-enriched counterpart
Protocol: A standard liver microsomal stability assay can be used to test or screen the compounds of this invention and to identify compounds with enhanced metabolic stability due to the enrichment of deuterium in the compounds. Liver microsome proteins prepared from different species such as mouse and rat were obtained from a commercial source (Research Institute for Liver Diseases, Shanghai, China). The assay was conducted in 1.5% potassium hydrogenphosphate (K2HPO4) in the presence of liver microsome proteins at 1 mg/ml and supplemented with an […] (3.3 mM NADPH, 3.3 mM glucose-6-phosphate, 6 units/ml G6PDase, and 3.3 mM magnesium chloride). Test compound was added into the assay mixture to a final concentration of 40 μM and incubated at 37° C. for 0 or 30 minutes. The reaction was stopped by the addition of 20 μM Bifonazole/CAN. Samples were then centrifuged at 14000 rpm for 10 minutes to precipitate proteins. Supernatant were then transferred to microcentrifuge tubes and subject to reverse phase HPLC analysis to determine the concentration of test compound.
The percentage of compounds that remained in the assay reactions after a thirty-minute incubation at 37° C. is calculated as the ratio between the amount of compound remained after a thirty-minute and that after a zero-minute incubation.

T2 sequence (P08581 25-1390): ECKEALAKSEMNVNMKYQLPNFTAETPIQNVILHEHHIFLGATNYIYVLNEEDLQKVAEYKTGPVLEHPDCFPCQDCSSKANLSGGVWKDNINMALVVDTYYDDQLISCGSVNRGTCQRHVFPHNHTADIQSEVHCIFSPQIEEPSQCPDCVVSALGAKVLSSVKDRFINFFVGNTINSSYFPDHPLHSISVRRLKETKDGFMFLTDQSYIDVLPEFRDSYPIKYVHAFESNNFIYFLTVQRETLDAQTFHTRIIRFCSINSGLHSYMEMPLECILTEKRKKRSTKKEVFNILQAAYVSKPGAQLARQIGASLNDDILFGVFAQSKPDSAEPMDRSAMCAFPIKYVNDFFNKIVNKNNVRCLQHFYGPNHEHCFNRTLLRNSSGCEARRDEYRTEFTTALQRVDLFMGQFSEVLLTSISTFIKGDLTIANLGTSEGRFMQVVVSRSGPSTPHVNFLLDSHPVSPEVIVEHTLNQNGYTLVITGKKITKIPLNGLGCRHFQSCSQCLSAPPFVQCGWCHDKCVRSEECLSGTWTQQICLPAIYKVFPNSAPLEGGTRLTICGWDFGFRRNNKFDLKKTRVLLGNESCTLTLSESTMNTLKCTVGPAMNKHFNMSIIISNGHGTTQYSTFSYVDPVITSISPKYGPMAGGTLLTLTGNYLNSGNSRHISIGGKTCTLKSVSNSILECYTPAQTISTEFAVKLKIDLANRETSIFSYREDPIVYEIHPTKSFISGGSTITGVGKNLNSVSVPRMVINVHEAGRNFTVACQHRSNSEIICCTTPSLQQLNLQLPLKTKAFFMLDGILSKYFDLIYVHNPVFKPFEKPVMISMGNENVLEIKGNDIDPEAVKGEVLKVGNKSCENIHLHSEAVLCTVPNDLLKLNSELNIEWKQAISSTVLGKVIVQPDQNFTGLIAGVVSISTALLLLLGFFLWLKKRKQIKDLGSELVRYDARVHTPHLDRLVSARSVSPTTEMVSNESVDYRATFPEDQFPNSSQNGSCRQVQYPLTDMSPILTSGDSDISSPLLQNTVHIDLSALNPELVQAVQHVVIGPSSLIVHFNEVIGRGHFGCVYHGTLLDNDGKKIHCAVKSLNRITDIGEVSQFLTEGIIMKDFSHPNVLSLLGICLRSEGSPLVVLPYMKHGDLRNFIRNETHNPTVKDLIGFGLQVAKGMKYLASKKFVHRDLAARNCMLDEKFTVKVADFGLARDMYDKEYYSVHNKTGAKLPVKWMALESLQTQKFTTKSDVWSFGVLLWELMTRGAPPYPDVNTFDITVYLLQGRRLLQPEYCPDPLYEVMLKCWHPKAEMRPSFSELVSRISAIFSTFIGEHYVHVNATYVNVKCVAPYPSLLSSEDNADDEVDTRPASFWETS

Row | remaining activity at 0.1 µM (EphB4) [%] | % of compound remained at the 30th minutes, Mouse liver microsome (Mouse liver microsome) | SMILES | % C-Met kinase activity remains (c-Met)
1 | < 70 | B | [2H]C([2H])([2H])Oc1ccc(Cl)cc1NC(=O)Nc1cccc2c1ccn2Cc1ccnc(N)c1 [Example 6, 1-[1-[(2-amino-4-pyridyl)methyl]indol-4-yl]-3-[5-chloro-2-(trideuteriomethoxy)phenyl]urea] | A (the percentage of kinase activity remains is below 70%)
2 | < 70 | A | [2H]C(c1c[nH]c2ncccc12)N1CCc2c(NC(=O)Nc3cc(Cl)ccc3OC)cccc21 (stereo not drawn) [Example 17, 1-(5-Chloro-2-methoxyphenyl)-3-[1-[deuterio(1H-pyrrolo[2,3-b]pyridin-3-yl)methyl]indolin-4-yl]urea] | A (the percentage of kinase activity remains is below 70%)
3 | < 70 | B | [2H]C([2H])(c1ccnc2[nH]ccc12)N1CCc2c(NC(=O)Nc3cc(Cl)ccc3F)cccc21 [Example 11, 1-(5-Chloro-2-fluorophenyl)-3-[1-[dideuterio(1H-pyrrolo[2,3-b]pyridin-4-yl)methyl]indolin-4-yl]urea hydrochloride] | A (the percentage of kinase activity remains is below 70%)
4 | ≥ 70 | A | Cl.[2H]C([2H])([2H])Oc1ccc(Cl)cc1NC(=O)Nc1cccc2c1CCN2C([2H])([2H])c1ccnc2[nH]ccc12 [Example 7, 1-[5-Chloro-2-(trideuteriomethoxy)phenyl]-3-[1-[dideuterio(1H-pyrrolo[2,3-b]pyridin-4-yl)methyl]indolin-4-yl]urea hydrochloride] | A (the percentage of kinase activity remains is below 70%)
5 | ≥ 70 | B | [2H]C(c1c[nH]c2ncccc12)n1ccc2c(NC(=O)Nc3cc(Cl)ccc3F)cccc21 (stereo not drawn) [Example 20, 1-(5-chloro-2-fluorophenyl)-3-[1-[deuterio(1H-pyrrolo[2,3-b]pyridin-3-yl)methyl]indol-4-yl]urea] | A (the percentage of kinase activity remains is below 70%)
6 | < 70 | B | [2H]C([2H])(c1ccnc2[nH]ccc12)n1ccc2c(NC(=O)Nc3cc(Cl)ccc3F)cccc21 [Example 12, 1-(5-chloro-2-fluorophenyl)-3-[1-[dideuterio(1H-pyrrolo[2,3-b]pyridin-4-yl)methyl]indol-4-yl]urea hydrochloride] | A (the percentage of kinase activity remains is below 70%)
7 | ≥ 70 | B | [2H]C(c1c[nH]c2ncccc12)N1CCc2c(NC(=O)Nc3cc(Cl)ccc3OC([2H])([2H])[2H])cccc21 (stereo not drawn) [Example 15, 1-[5-Chloro-2-(trideuteriomethoxy)phenyl]-3-[1-[deuterio(1H-pyrrolo[2,3-b]pyridin-3-yl)methyl]indolin-4-yl]urea] | A (the percentage of kinase activity remains is below 70%)
8 | < 70 | A | [2H]C(c1c[nH]c2ncccc12)n1ccc2c(NC(=O)Nc3cc(Cl)ccc3OC)cccc21 (stereo not drawn) [Example 18, 1-(5-chloro-2-methoxyphenyl)-3-[1-[deuterio(1H-pyrrolo[2,3-b]pyridin-3-yl)methyl]indol-4-yl]urea] | A (the percentage of kinase activity remains is below 70%)
9 | < 70 | B | [2H]C([2H])([2H])Oc1ccc(Cl)cc1NC(=O)Nc1cccc2c1CCN2C([2H])([2H])c1ccnc(N)c1 [Example 3, 1-[1-[(2-Amino-4-pyridyl)-dideuteriomethyl]indolin-4-yl]-3-[5-chloro-2-(trideuteriomethoxy)phenyl]urea] | A (the percentage of kinase activity remains is below 70%)
10 | ≥ 70 | A | [2H]C(c1c[nH]c2ncccc12)N1CCc2c(NC(=O)Nc3cccc(C)c3)cccc21 (stereo not drawn) [Example 21, 1-[1-[Deuterio(1H-pyrrolo[2,3-b]pyridin-3-yl)methyl]indolin-4-yl]-3-(m-tolyl)urea] | B (the percentage is greater or equal to 70%)
11 | ≥ 70 | A | [2H]C([2H])(c1ccnc2[nH]ccc12)n1ccc2c(NC(=O)Nc3cc(Cl)ccc3OC)cccc21 [Example 10, 1-(5-chloro-2-methoxyphenyl)-3-[1-[dideuterio(1H-pyrrolo[2,3-b]pyridin-4-yl)methyl]indol-4-yl]urea hydrochloride] | A (the percentage of kinase activity remains is below 70%)
12 | ≥ 70 | B | [2H]C(c1c[nH]c2ncccc12)N1CCc2c(NC(=O)Nc3cc(Cl)ccc3F)cccc21 (stereo not drawn) [Example 19, 1-(5-Chloro-2-fluorophenyl)-3-[1-[deuterio(1H-pyrrolo[2,3-b]pyridin-3-yl)methyl]indolin-4-yl]urea] | B (the percentage is greater or equal to 70%)

— patent US20130165475A1, “DEUTERIUM-ENRICHED HETEROCYCLIC COMPOUNDS AS KINASE INHIBITORS” (ASCEPION PHARMACEUTICALS, INC., priority 2010, published 2013)
